From patent US9573978B2, “Cyclosporin derivatives for the treatment and prevention of a viral infection” (priority 2010, dated 2017) come the findings set out here.

The test system of this assay is HCV replicon in Huh7 human hepatoma cell line ET (luc-ubi-neo/ET). Nature of the assay: HCV subgenomic replicon assay, luciferase end point, cell line ET (luc-ubi-neo/ET). It is filed as cell-based, Hepatitis C virus. The protocol:
The anti-HCV activity of cyclosporine derivatives were evaluated in the HCV subgenomic replicon assay. The assay use the cell line ET (luc-ubi-neo/ET), which is a Huh7 human hepatoma cell line harboring an HCV replicon with a stable luciferase (Luc) reporter. HCV RNA replication was assessed by quantifying HCV replicon-derived luciferase activity. The antiviral activity of cyclosporine analogs were evaluated after drug treatment, the EC 50 and EC 90 were determined in subsequent assessments by using the luciferase end point (Krieger, N., et al., 2001, J. Virol. 75, 4614-4624; Pietschmann, T., et al., 2002, J. Virol. 76, 4008-4021; each of which is incorporated herein by reference).
Background: A replicon is a self-replicating genome or part of one, used to study replication in cells.

The mark [1] stands for this setting: Hepatitis C virus, Huh-7, read-out: Antiviral activity IC50.
Setting [2] is: HCV replicon-derived luciferase activity, read-out: Antiviral activity IC50.

Where two headings read alike, the source gives them in different places. Starred links: 1 amine or outer side, 2 acyl side, 3 side chain; linkers in the order of their positions; H or OH if unused. Non-standard residues stand in square brackets, D forms with d. Residues, ends and D or L forms follow the SMILES beside them. ξ: configuration not given here. NMe(dihydroBmt) = CCCC[C@@H](C)[C@@H](O)[C@H](NC)C(=O)O; MeBmt = C/C=C/C[C@@H](C)[C@@H](O)[C@H](NC)C(=O)O; X2 = CN([C@H](SCCCN1CCOCC1)C(=O)[*:2])[*:1]; NMeLeu(4-OMe) = CN[C@@H](CC(C)(C)OC)C(=O)O; X4 = CCN(CC)CCS[C@@H](C(=O)[*:2])N(C)[*:1]; X1 = CCN(CC)CCS[C@H](C(=O)[*:2])N(C)[*:1]; X5 = CC=CCC(C)C(O)C(C(=O)[*:2])N(C)[*:1]; X7 = C=CCOC(C)(C)CC(C(=O)[*:2])N(C)[*:1]; X6 = CN(C(SCCCN1CCOCC1)C(=O)[*:2])[*:1]; NMeIle(3ξ) = CCC(C)[C@H](NC)C(=O)O; NMeL = CN[CH](CC(C)C)C(=O)O; NMeV = CN[CH](C(=O)O)C(C)C; Abu = CC[CH](N)C(=O)O

Regarding `C/C=C/C[C@@H](C)[C@@H](O)[C@H]1C(=O)N[C@@H](CC)C(=O)N(C)[C@H](SCCCN2CCOCC2)C(=O)N(C)[C@@H](CC(C)(C)O)C(=O)N[C@@H](C(C)C)C(=O)N(C)[C@@H](CC(C)C)C(=O)N[C@@H](C)C(=O)N[C@H](C)C(=O)N(C)[C@@H](CC(C)C)C(=O)N(C)[C@@H](CC(C)C)C(=O)N(C)[C@@H](C(C)C)C(=O)N1C` [Example 1, [(R)-3-(N-Morphlino)propylthio-Sar]-3-[(γ-Hydroxy)-NMeLeu]-4-cyclosporin], the IC50 under setting [1] was 40 nM.

Consider `C/C=C/C[C@@H](C)[C@@H](O)[C@H]1C(=O)N[C@@H](CC)C(=O)N(C)[C@H](SCCCN(CC)CC)C(=O)N(C)[C@@H](CC(C)(C)O)C(=O)N[C@@H](C(C)C)C(=O)N(C)[C@@H](CC(C)C)C(=O)N[C@@H](C)C(=O)N[C@H](C)C(=O)N(C)[C@@H](CC(C)C)C(=O)N(C)[C@@H](CC(C)C)C(=O)N(C)[C@@H](C(C)C)C(=O)N1C` [Example 2, [(R)-3-(N,N-Diethylamino)propylthio-Sar]-3-[(γ-Hydroxy)-NMeLeu]-4-cyclosporin], for which the IC50 under setting [1] worked out at 70 nM.

Turning to `CCCC[C@@H](C)[C@@H](O)[C@H]1C(=O)N[C@@H](CC)C(=O)N(C)[C@H](SCCCN2CCOCC2)C(=O)N(C)[C@@H](CC(C)(C)OC)C(=O)N[C@@H](C(C)C)C(=O)N(C)[C@@H](CC(C)C)C(=O)N[C@@H](C)C(=O)N[C@H](C)C(=O)N(C)[C@@H](CC(C)C)C(=O)N(C)[C@@H](CC(C)C)C(=O)N(C)[C@@H](C(C)C)C(=O)N1C` [Example 10, [(R)-3-(N-Morphlino)propylthio-Sar]-3-[(γ-Methoxy)-NMeLeu]-4-Dihydrocyclosporin] (cyclo(A[dA][NMeL][NMeL][NMeV][NMe(dihydroBmt)][Abu][X2][NMeLeu(4-OMe)]V[NMeL])), the IC50 under setting [1] was found to be 90 nM.

Take `C/C=C/C[C@@H](C)[C@@H](O)[C@H]1C(=O)N[C@@H](CC)C(=O)N(C)[C@H](SCCCN2CCOCC2)C(=O)N(C)[C@@H](CC(C)(C)OC)C(=O)N[C@@H](C(C)C)C(=O)N(C)[C@@H](CC(C)C)C(=O)N[C@@H](C)C(=O)N[C@H](C)C(=O)N(C)[C@@H](CC(C)C)C(=O)N(C)[C@@H](CC(C)C)C(=O)N(C)[C@@H](C(C)C)C(=O)N1C` [Example 12, [(R)-3-(N-Morphlino)propylthio-Sar]-3-[(γ-Methoxy)-NMeLeu]-4-cyclosporin]: the 50% inhibitory concentration (IC50) under setting [1] was 60 nM.

As to `C=CCOC(C)(C)CC1C(=O)NC(C(C)C)C(=O)N(C)C(CC(C)C)C(=O)NC(C)C(=O)NC(C)C(=O)N(C)C(CC(C)C)C(=O)N(C)C(CC(C)C)C(=O)N(C)C(C(C)C)C(=O)N(C)C(C(O)C(C)CC=CC)C(=O)NC(CC)C(=O)N(C)C(SCCCN2CCOCC2)C(=O)N1C` [Example 26, [(R)-3-(N-Morphlino)propylthio-Sar]-3-[(γ-Allyloxy)-NMeLeu]-4-cyclosporin] (cyclo([X5][Abu][X6][X7]V[NMeL]AA[NMeL][NMeL][NMeV]); configuration not given here), under setting [2], the IC50 is 80 nM.

As to `C/C=C/C[C@@H](C)[C@@H](O)[C@H]1C(=O)N[C@@H](CC)C(=O)N(C)CC(=O)N(C)[C@@H](C(C)C)C(=O)N[C@@H](C(C)C)C(=O)N(C)[C@@H](CC(C)C)C(=O)N[C@@H](C)C(=O)N[C@H](C)C(=O)N(C)[C@@H](CC(C)C)C(=O)N(C)[C@@H](CC(C)C)C(=O)N(C)[C@@H](C(C)C)C(=O)N1C` [SDZ-220-384, N-MeVal-4-Cyclosporin], the 50% inhibitory concentration (IC50) under setting [2] is 170 nM.

For the compound `C/C=C/C[C@@H](C)[C@@H](O)[C@H]1C(=O)N[C@@H](CC)C(=O)N(C)CC(=O)N(C)[C@@H]([C@@H](C)CC)C(=O)N[C@@H](C(C)C)C(=O)N(C)[C@@H](CC(C)C)C(=O)N[C@@H](C)C(=O)N[C@H](C)C(=O)N(C)[C@@H](CC(C)C)C(=O)N(C)[C@@H](CC(C)C)C(=O)N(C)[C@@H](C(C)C)C(=O)N1C` [SDZ-NIM-811, N-MeIle-4-Cyclosporin], under setting [1], the 50% inhibitory concentration (IC50) was found to be 150 nM.

For `C/C=C/C[C@@H](C)[C@@H](O)[C@H]1C(=O)N[C@@H](CC)C(=O)N(C)[C@H](SCCN(CC)CC)C(=O)N(C)[C@@H](C(C)CC)C(=O)N[C@@H](C(C)C)C(=O)N(C)[C@@H](CC(C)C)C(=O)N[C@@H](C)C(=O)N[C@H](C)C(=O)N(C)[C@@H](CC(C)C)C(=O)N(C)[C@@H](CC(C)C)C(=O)N(C)[C@@H](C(C)C)C(=O)N1C` (stereo partly drawn) [[(R)-2-(N,N-Diethylamino)ethylthio-Sar]-3-[NMeIle]-4-cyclosporin] (cyclo(A[dA][NMeL][NMeL][NMeV][MeBmt][Abu][X1][NMeIle(3ξ)]V[NMeL])), under setting [1], the half-maximal inhibitory concentration (IC50) worked out at 40 nM.

Consider `C/C=C/C[C@@H](C)[C@@H](O)[C@H]1C(=O)N[C@@H](CC)C(=O)N(C)[C@H](SCCN(CC)CC)C(=O)N(C)[C@@H](C(C)C)C(=O)N[C@@H](C(C)C)C(=O)N(C)[C@@H](CC(C)C)C(=O)N[C@@H](C)C(=O)N[C@H](C)C(=O)N(C)[C@@H](CC(C)C)C(=O)N(C)[C@@H](CC(C)C)C(=O)N(C)[C@@H](C(C)C)C(=O)N1C` [[(R)-2-(N,N-Diethylamino)ethylthio-Sar]-3-[NMeVal]-4-cyclosporin] (cyclo(A[dA][NMeL][NMeL][NMeV][MeBmt][Abu][X1][NMeV]V[NMeL])), for which, under setting [2], the IC50 was 40 nM.

As to `C/C=C/C[C@@H](C)[C@@H](O)[C@H]1C(=O)N[C@@H](CC)C(=O)N(C)[C@@H](SCCN(CC)CC)C(=O)N(C)[C@@H](C(C)C)C(=O)N[C@@H](C(C)C)C(=O)N(C)[C@@H](CC(C)C)C(=O)N[C@@H](C)C(=O)N[C@H](C)C(=O)N(C)[C@@H](CC(C)C)C(=O)N(C)[C@@H](CC(C)C)C(=O)N(C)[C@@H](C(C)C)C(=O)N1C` [[(S)-2-(N,N-Diethylamino)ethylthio-Sar]-3-[NMeVal]-4-cyclosporin] (cyclo(A[dA][NMeL][NMeL][NMeV][MeBmt][Abu][X4][NMeV]V[NMeL])), under setting [2], the half-inhibitory concentration (IC50) stood at 3660 nM.

In the case of “[(S)-2-(N,N-Diethylamino)ethylthio-Sar]-3-[NMeIle]-4-cyclosporin”, under setting [2], the IC50 turned out to be 1870 nM.

As usually defined, the IC50 is the concentration at which inhibition is half-maximal.
